In the supplement of paper PMC10307832:

How the values were obtained:
Test in all cases: relative viability (nuclei count vs DMSO), 5 days (fraction); higher = more cells survive
201T = test system: 201T
Summary of the method: (§1)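 Relative viability was taken as the ratio of nuclei in treated wells to nuclei in vehicle wells. Lung cancer cell lines in 1536-well plates received compounds by pin tool one day after seeding, either one drug alone or a fixed anchor-drug dose plus five library-drug doses (not always all listed) in √10 steps. Nuclei were counted on 4× images after 5 days of treatment, and values are medians of duplicate plates.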

BEN = test system: BEN
Summary of the method: as §1

COR-L 105 = test system: COR-L 105
Summary of the method: as §1

EMC-BAC-2 = test system: EMC-BAC-2
Summary of the method: as §1

H3255 = test system: H3255
Summary of the method: as §1

HARA = test system: HARA
Summary of the method: as §1

HCC-78 = test system: HCC-78
Summary of the method: as §1

HOP-62 = test system: HOP-62
Summary of the method: as §1

LC-2-ad = test system: LC-2-ad
Summary of the method: as §1

LOU-NH91 = test system: LOU-NH91
Summary of the method: as §1

LU99A = test system: LU99A
Summary of the method: as §1

LXF-289 = test system: LXF-289
Summary of the method: as §1

NCI-H1395 = test system: NCI-H1395
Summary of the method: as §1

NCI-H1563 = test system: NCI-H1563
Summary of the method: as §1

NCI-H1993 = test system: NCI-H1993
Summary of the method: as §1

NCI-H2087 = test system: NCI-H2087
Summary of the method: as §1

NCI-H2126 = test system: NCI-H2126
Summary of the method: as §1

NCI-H2170 = test system: NCI-H2170
Summary of the method: as §1

NCI-H650 = test system: NCI-H650
Summary of the method: as §1

RERF-LC-KJ = test system: RERF-LC-KJ
Summary of the method: as §1

SK-MES-1 = test system: SK-MES-1
Summary of the method: as §1

SW 900 = test system: SW 900
Summary of the method: as §1

UMC-11 = test system: UMC-11
Summary of the method: as §1

`CCNC(=O)c1noc(-c2cc(C(C)C)c(O)cc2O)c1-c1ccc(CN2CCOCC2)cc1` [Luminespib] + COc1cc2c(Oc3ccc(NC(=O)C4(C(=O)Nc5ccc(F)cc5)CC4)cc3F)ccnc2cc1OCCCN1CCOCC1 [Foretinib] (partner 0.25 µM) showed a relative viability (201T; first compound 0.002 µM) of 1.06, a relative viability (201T; first compound 0.006325 µM) of 1.07 and a relative viability (201T; first compound 0.02 µM) of 1.08. For the same compound, the relative viability (201T; first compound 0.06325 µM) was 0.173, the relative viability (201T; first compound 0.2 µM) was 0.159 and the relative viability (BEN; first compound 0.002 µM) was 0.63. The relative viability (BEN; first compound 0.006325 µM) was 0.71, the relative viability (BEN; first compound 0.02 µM) was 0.362 and the relative viability (BEN; first compound 0.06325 µM) was 0.531. For the same compound, the relative viability (BEN; first compound 0.2 µM) was 0.222, the relative viability (COR-L 105; first compound 0.002 µM) was 0.885 and the relative viability (COR-L 105; first compound 0.006325 µM) was 1.04. For the same compound, the relative viability (COR-L 105; first compound 0.02 µM) was 1.07, the relative viability (COR-L 105; first compound 0.06325 µM) was 0.436 and the relative viability (COR-L 105; first compound 0.2 µM) was 0.273. For the same compound, the relative viability (EMC-BAC-2; first compound 0.002 µM) was 1.03, the relative viability (EMC-BAC-2; first compound 0.006325 µM) was 0.936 and the relative viability (EMC-BAC-2; first compound 0.02 µM) was 0.942. It also gave a relative viability (EMC-BAC-2; first compound 0.06325 µM) of 0.915, a relative viability (EMC-BAC-2; first compound 0.2 µM) of 0.56 and a relative viability (H3255; first compound 0.002 µM) of 0.785. For the same compound, the relative viability (H3255; first compound 0.006325 µM) was 0.821, the relative viability (H3255; first compound 0.06325 µM) was 0.833 and the relative viability (H3255; first compound 0.2 µM) was 0.329. For the same compound, the relative viability (HARA; first compound 0.002 µM) was 1.09, the relative viability (HARA; first compound 0.006325 µM) was 0.728 and the relative viability (HARA; first compound 0.02 µM) was 1.08. For the same compound, the relative viability (HARA; first compound 0.06325 µM) was 0.922, the relative viability (HARA; first compound 0.2 µM) was 0.785 and the relative viability (HCC-78; first compound 0.002 µM) was 0.627. It also gave a relative viability (HCC-78; first compound 0.006325 µM) of 0.593, a relative viability (HCC-78; first compound 0.06325 µM) of 0.609 and a relative viability (HCC-78; first compound 0.2 µM) of 0.598. It also gave a relative viability (HOP-62; first compound 0.002 µM) of 1.09, a relative viability (HOP-62; first compound 0.006325 µM) of 1.11 and a relative viability (HOP-62; first compound 0.02 µM) of 1.17. It also gave a relative viability (HOP-62; first compound 0.06325 µM) of 0.587, a relative viability (HOP-62; first compound 0.2 µM) of 0.145 and a relative viability (LC-2-ad; first compound 0.002 µM) of 1.02. It also gave a relative viability (LC-2-ad; first compound 0.006325 µM) of 0.928, a relative viability (LC-2-ad; first compound 0.02 µM) of 0.834 and a relative viability (LC-2-ad; first compound 0.06325 µM) of 0.321. The relative viability (LC-2-ad; first compound 0.2 µM) was 0.25, the relative viability (LOU-NH91; first compound 0.002 µM) was 0.922 and the relative viability (LOU-NH91; first compound 0.006325 µM) was 0.95. It also gave a relative viability (LOU-NH91; first compound 0.02 µM) of 0.577, a relative viability (LOU-NH91; first compound 0.06325 µM) of 0.378 and a relative viability (LOU-NH91; first compound 0.2 µM) of 0.298. For the same compound, the relative viability (LU99A; first compound 0.002 µM) was 0.821, the relative viability (LU99A; first compound 0.006325 µM) was 0.758 and the relative viability (LU99A; first compound 0.02 µM) was 0.527. The relative viability (LU99A; first compound 0.06325 µM) was 0.186, the relative viability (LU99A; first compound 0.2 µM) was 0.175 and the relative viability (LXF-289; first compound 0.002 µM) was 0.993. For the same compound, the relative viability (LXF-289; first compound 0.006325 µM) was 0.979, the relative viability (LXF-289; first compound 0.02 µM) was 1.2 and the relative viability (LXF-289; first compound 0.06325 µM) was 0.547. The relative viability (LXF-289; first compound 0.2 µM) was 0.323, the relative viability (NCI-H1395; first compound 0.002 µM) was 1.04 and the relative viability (NCI-H1395; first compound 0.006325 µM) was 0.941. The relative viability (NCI-H1395; first compound 0.02 µM) was 0.805, the relative viability (NCI-H1395; first compound 0.06325 µM) was 0.568 and the relative viability (NCI-H1395; first compound 0.2 µM) was 0.345. For the same compound, the relative viability (NCI-H1563; first compound 0.002 µM) was 1.01, the relative viability (NCI-H1563; first compound 0.006325 µM) was 0.831 and the relative viability (NCI-H1563; first compound 0.02 µM) was 0.875. For the same compound, the relative viability (NCI-H1563; first compound 0.06325 µM) was 0.452, the relative viability (NCI-H1563; first compound 0.2 µM) was 0.537 and the relative viability (NCI-H1993; first compound 0.002 µM) was 0.772. For the same compound, the relative viability (NCI-H1993; first compound 0.006325 µM) was 0.779, the relative viability (NCI-H1993; first compound 0.02 µM) was 0.632 and the relative viability (NCI-H1993; first compound 0.06325 µM) was 0.549. It also gave a relative viability (NCI-H1993; first compound 0.2 µM) of 0.482, a relative viability (NCI-H2087; first compound 0.002 µM) of 1.11 and a relative viability (NCI-H2087; first compound 0.006325 µM) of 1.1. For the same compound, the relative viability (NCI-H2087; first compound 0.02 µM) was 1.37, the relative viability (NCI-H2087; first compound 0.06325 µM) was 0.118 and the relative viability (NCI-H2087; first compound 0.2 µM) was 0.113. It also gave a relative viability (NCI-H2126; first compound 0.002 µM) of 0.865, a relative viability (NCI-H2126; first compound 0.006325 µM) of 1.07 and a relative viability (NCI-H2126; first compound 0.02 µM) of 0.882. The relative viability (NCI-H2126; first compound 0.06325 µM) was 0.589, the relative viability (NCI-H2126; first compound 0.2 µM) was 0.207 and the relative viability (NCI-H2170; first compound 0.002 µM) was 0.986. For the same compound, the relative viability (NCI-H2170; first compound 0.006325 µM) was 0.973, the relative viability (NCI-H2170; first compound 0.02 µM) was 0.806 and the relative viability (NCI-H2170; first compound 0.06325 µM) was 0.72. For the same compound, the relative viability (NCI-H2170; first compound 0.2 µM) was 0.181, the relative viability (NCI-H650; first compound 0.002 µM) was 1.09 and the relative viability (NCI-H650; first compound 0.006325 µM) was 0.974. It also gave a relative viability (NCI-H650; first compound 0.02 µM) of 0.782, a relative viability (NCI-H650; first compound 0.06325 µM) of 0.811 and a relative viability (NCI-H650; first compound 0.2 µM) of 0.149. It also gave a relative viability (RERF-LC-KJ; first compound 0.002 µM) of 0.875, a relative viability (RERF-LC-KJ; first compound 0.006325 µM) of 0.832 and a relative viability (RERF-LC-KJ; first compound 0.02 µM) of 0.71. The relative viability (RERF-LC-KJ; first compound 0.06325 µM) was 0.861, the relative viability (RERF-LC-KJ; first compound 0.2 µM) was 0.445 and the relative viability (SK-MES-1; first compound 0.002 µM) was 0.829. For the same compound, the relative viability (SK-MES-1; first compound 0.006325 µM) was 0.804, the relative viability (SK-MES-1; first compound 0.02 µM) was 0.777 and the relative viability (SK-MES-1; first compound 0.06325 µM) was 0.138. The relative viability (SK-MES-1; first compound 0.2 µM) was 0.156, the relative viability (SW 900; first compound 0.002 µM) was 0.966 and the relative viability (SW 900; first compound 0.006325 µM) was 0.742. It also gave a relative viability (SW 900; first compound 0.02 µM) of 0.813, a relative viability (SW 900; first compound 0.06325 µM) of 0.134 and a relative viability (SW 900; first compound 0.2 µM) of 0.117. It also gave a relative viability (UMC-11; first compound 0.002 µM) of 1.14, a relative viability (UMC-11; first compound 0.006325 µM) of 0.982 and a relative viability (UMC-11; first compound 0.02 µM) of 0.816. For the same compound, the relative viability (UMC-11; first compound 0.06325 µM) was 0.561 and the relative viability (UMC-11; first compound 0.2 µM) was 0.169.
